Values quoted from earlier work in patent publication US20260144768A1, “MODIFIED RELEASE GAMMA-HYDROXYBUTYRATE FORMULATIONS HAVING IMPROVED PHARMACOKINETICS” (Flamel Ireland Limited, priority 2022, published 2026).
Where two headings read alike, the source gives them in different places.

Legend:
mouse = conditions: 2-year study
rat [1] = conditions: 2-year study
plasma proteins = conditions: GHB 3 mcg/mL to 300 mcg/mL
[2] = not given; remark: listed apart in the source
CYP1A2 = target: T1, CYP1A2 (Homo sapiens, UniProt P05177); conditions: up to 3 mM (378 mcg/mL)
T1 sequence (P05177 1-516): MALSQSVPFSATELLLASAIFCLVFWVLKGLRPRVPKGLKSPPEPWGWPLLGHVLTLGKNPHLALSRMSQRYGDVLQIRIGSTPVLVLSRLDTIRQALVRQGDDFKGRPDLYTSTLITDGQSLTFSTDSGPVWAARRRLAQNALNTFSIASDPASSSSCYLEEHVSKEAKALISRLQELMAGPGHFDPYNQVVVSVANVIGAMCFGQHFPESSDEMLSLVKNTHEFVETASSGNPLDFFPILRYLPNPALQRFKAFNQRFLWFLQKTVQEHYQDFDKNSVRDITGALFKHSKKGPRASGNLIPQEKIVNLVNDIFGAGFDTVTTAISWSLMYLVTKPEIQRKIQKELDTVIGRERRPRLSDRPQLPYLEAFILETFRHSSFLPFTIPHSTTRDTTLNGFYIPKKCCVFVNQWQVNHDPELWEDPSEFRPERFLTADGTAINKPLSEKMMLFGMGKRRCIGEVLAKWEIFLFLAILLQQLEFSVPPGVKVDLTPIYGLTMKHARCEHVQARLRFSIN

CYP2C9 = CYP2C9 (Homo sapiens, UniProt P11712); conditions: up to 3 mM (378 mcg/mL)
CYP2C9, sequence (P11712 whole entry): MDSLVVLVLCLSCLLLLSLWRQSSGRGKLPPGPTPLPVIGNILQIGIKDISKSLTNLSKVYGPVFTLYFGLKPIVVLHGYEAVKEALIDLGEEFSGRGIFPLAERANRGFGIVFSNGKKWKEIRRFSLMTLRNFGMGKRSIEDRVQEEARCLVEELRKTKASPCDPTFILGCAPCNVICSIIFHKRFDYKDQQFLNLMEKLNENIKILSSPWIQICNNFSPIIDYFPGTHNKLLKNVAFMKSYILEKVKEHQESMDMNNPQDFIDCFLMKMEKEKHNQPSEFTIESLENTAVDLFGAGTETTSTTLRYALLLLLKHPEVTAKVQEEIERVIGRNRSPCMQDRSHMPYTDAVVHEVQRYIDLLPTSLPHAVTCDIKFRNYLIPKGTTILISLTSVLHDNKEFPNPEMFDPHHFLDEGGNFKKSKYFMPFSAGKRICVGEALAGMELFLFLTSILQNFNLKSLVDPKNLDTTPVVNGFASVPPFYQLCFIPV

CYP2C19 = CYP2C19 (Homo sapiens, UniProt P33261); conditions: up to 3 mM (378 mcg/mL)
CYP2C19, sequence (P33261 whole entry): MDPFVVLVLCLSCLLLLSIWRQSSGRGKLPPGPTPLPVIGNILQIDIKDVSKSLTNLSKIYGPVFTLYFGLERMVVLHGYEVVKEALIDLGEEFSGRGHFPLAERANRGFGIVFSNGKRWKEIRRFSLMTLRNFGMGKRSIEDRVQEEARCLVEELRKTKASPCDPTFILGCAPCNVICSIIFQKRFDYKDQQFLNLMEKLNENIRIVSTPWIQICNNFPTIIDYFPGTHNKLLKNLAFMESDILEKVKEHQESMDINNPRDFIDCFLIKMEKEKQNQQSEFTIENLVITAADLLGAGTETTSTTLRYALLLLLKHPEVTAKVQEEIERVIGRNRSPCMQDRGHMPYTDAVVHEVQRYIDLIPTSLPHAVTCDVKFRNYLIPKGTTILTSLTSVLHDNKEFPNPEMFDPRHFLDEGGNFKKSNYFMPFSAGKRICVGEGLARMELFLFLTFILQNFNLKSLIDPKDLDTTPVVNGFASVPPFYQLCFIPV

CYP2D6 = CYP2D6 (Homo sapiens, UniProt P10635); conditions: up to 3 mM (378 mcg/mL)
CYP2D6, sequence (P10635 whole entry): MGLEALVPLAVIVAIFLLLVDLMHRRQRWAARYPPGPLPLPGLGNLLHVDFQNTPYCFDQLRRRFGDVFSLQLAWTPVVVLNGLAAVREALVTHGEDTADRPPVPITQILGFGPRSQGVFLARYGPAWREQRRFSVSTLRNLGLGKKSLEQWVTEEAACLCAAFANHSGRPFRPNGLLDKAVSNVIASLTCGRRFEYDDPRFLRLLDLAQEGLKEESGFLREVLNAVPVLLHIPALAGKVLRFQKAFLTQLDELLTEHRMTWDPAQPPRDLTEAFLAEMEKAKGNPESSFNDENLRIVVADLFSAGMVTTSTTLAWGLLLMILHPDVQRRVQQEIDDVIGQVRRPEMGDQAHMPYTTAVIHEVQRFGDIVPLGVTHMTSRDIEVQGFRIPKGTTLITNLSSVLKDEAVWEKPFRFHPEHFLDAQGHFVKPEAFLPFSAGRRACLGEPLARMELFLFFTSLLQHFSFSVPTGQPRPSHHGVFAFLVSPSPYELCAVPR

CYP2E1 = CYP2E1 (Homo sapiens, UniProt P05181); conditions: up to 3 mM (378 mcg/mL)
CYP2E1, sequence (P05181 whole entry): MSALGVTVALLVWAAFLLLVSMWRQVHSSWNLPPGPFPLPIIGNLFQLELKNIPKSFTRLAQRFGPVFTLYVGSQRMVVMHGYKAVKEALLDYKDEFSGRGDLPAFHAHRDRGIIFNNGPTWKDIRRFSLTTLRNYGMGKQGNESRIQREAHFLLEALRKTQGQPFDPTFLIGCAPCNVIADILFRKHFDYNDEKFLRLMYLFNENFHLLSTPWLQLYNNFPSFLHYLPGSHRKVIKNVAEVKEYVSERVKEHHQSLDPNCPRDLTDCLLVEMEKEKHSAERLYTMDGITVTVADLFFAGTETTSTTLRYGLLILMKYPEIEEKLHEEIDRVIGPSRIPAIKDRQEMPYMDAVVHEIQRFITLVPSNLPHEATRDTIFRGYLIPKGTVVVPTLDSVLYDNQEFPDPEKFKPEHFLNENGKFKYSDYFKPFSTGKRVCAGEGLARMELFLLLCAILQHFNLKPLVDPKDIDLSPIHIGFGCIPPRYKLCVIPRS

CYP3A = conditions: up to 3 mM (378 mcg/mL)
[3] = 6 g per day (2 × 3 g) with ibuprofen 800 mg/dose four times per day
rats [4] = tested on: rats
bacterial gene mutation = conditions: in vitro
mammalian cells = conditions: in vitro
rat [5] = conditions: in vivo
rats [6] = conditions: 150, 350, or 1,000 mg/kg/day oral
pregnant rats = conditions: 150, 350, or 1,000 mg/kg/day oral
pregnant rabbits = conditions: 300, 600, or 1,200 mg/kg/day oral
rats [7] = tested on: rats; remark: listed apart in the source

In the case of `O=C1CCCO1` [gamma-butyrolactone], the Carcinogenic activity (mouse) is given as “no clear evidence of carcinogenic activity” and the Carcinogenic activity (rat [1]) is given as “no clear evidence of carcinogenic activity”.

In the case of `O=C(O)CCCO` [GHB, gamma-hydroxybutyrate], the “Apparent volume of distribution” value (in vivo) is listed as 0.19 to 0.384 L/kg, the Elimination half-life (in vivo) is listed as 30 to 60 min and the “Unchanged drug in human urine” value (within 6 to 8 hours after dosing) is listed as “less than 5%”. For the same compound, the “Bound to plasma proteins” value (plasma proteins) was “less than 1%”, the Apparent oral clearance ([2]; Child's Class A) was 0.27 L/h/kg and the “Mean t1/2” value ([2]; Child's Class A) was 32 min. For the same compound, the Apparent oral clearance ([2]; Child's Class C) was 0.246 L/h/kg, the “Mean t1/2” value ([2]; Child's Class C) was 59 min and the “Mean t1/2” value ([2]; control patients) was 22 min. The Apparent oral clearance ([2]; healthy adults) was 0.546 L/h/kg.

In the case of `O=C([O-])CCCO.[Na+]` [sodium oxybate, sodium 4-hydroxybutyrate], the “Inhibition of CYP1A2 activity” value (CYP1A2) is given as “does not significantly inhibit”, the “Inhibition of CYP2C9 activity” value (CYP2C9) is given as “does not significantly inhibit” and the “Inhibition of CYP2C19 activity” value (CYP2C19) is given as “does not significantly inhibit”. For the same compound, the “Inhibition of CYP2D6 activity” value (CYP2D6) was “does not significantly inhibit”, the “Inhibition of CYP2E1 activity” value (CYP2E1) was “does not significantly inhibit” and the “Inhibition of CYP3A activity” value (CYP3A) was “does not significantly inhibit”. For the same compound, the “Systemic exposure to GHB on co-administration” value [3] was “comparable”, the “Plasma exposure (AUC) relative to humans at the MRHD of 9 g per night” value (rats [4]; highest dose tested) was 2 times and the Tumors (rats [4]; oral doses up to 1,000 mg/kg/day) was “no increase in tumors”. For the same compound, the Bacterial gene mutation (bacterial gene mutation) was “negative”, the Chromosomal aberration (mammalian cells) was “negative” and the Micronucleus (rat [5]) was “negative”. The Effects on fertility (rats [6]) was “no adverse effects on fertility”, the Developmental toxicity (pregnant rats) was “no clear evidence of developmental toxicity” and the Developmental toxicity (pregnant rabbits) was “no clear evidence of developmental toxicity”. The Mortality (rats [7]; 0, 100, 300, or 900 mg/kg/day, two highest doses) was “mortality was observed” and the “Findings at the highest dose tested” value (rats [7]; 900 mg/kg/day) was “Reduced body weight gain in males and females and delayed sexual maturation in males”.
